Entries after “also recorded” stand apart in the source; their conditions may differ. Where no end group is shown, it is not given here.
Key:
prostasin = prostasin (Homo sapiens, UniProt Q16651)
Description: (§1) All incubation sample tubes were pulsed briefly in a microcentrifuge, and immediately stored at −20°C. Samples were electrophoresed on mini-16% Tricine-SDS gels, and stained.
(§2) Digested peptide fragments from protease incubations underwent MALDI-TOF/TOF MS/MS analysis using the Model Ultraflex III mass spectrometer (Bruker Daltonics, Billerica, MA, USA) equipped with LIFT capability. Samples were desalted using C18 ZipTips (Millipore, Bedford, MA, USA) and were analyzed in positive reflector mode. External calibration was performed using a mass standards kit for proteomics analyzer (Applied Biosystems). Samples also underwent analysis via nano-LC ESI-TOF MS/MS using the maXis ESI-Q-TOF (Bruker Daltonics) mass spectrometer online with the Dionex model U3000 nanobore HPLC [28]. Data were analyzed with the Sprot database using the Bruker ProteinScape program version 2.1 and Mascot program version 2.2 with enzyme setting to semiTrypsin.

trypsin [1] = test system: trypsin
Description: as §1, §2

matriptase = matriptase (Homo sapiens, UniProt Q9Y5Y6)
Description: as §1, §2

[2] = target: prostate-specific antigen (PSA) (Homo sapiens, UniProt P07288)
Description: as §1, §2

[3] = 300 rpm, 37°C, Tricine-SDS gel; for stability in SP containing protease inhibitor (PI) cocktail: SP spiked with broad spectrum PI cocktail, 1–24 h; for time to complete degradation / time to partial degradation: three volumes peptide (1 mg/ml) with one volume whole SP, Coomassie blue
Description: as §1

TZM-bl cells [4] = assay type: cell-based; settings: 24 h of treatment; peptides 35 µg/ml, SP 1%
Description: (§3) All treated cells were lysed using a Bright Glo luciferase system (Promega, Madison, WI, USA), and the ability to prevent HIV-1 infection was measured as a percent reduction in luciferase (relative light units or RLU) compared to the positive viral control (media and virus only). Metabolic activity of the cells was verified by a tetrazolium-based (MTT) assay according to manufacturer's instructions (R&D Systems, Minneapolis, MN, USA), while cytotoxicity was measured using the standard trypan blue dye exclusion assay.

TZM-bl cells [5] = assay: MTT metabolic assay; assay type: cell-based; settings: cells treated for 24 h; peptides 35 µg/ml, SP 1%
Description: as §3

PBMCs = settings: 35 µg/ml with or without 1% SP; n = 3
Description: (§4) Cells were then washed, and resuspended in fresh media with sample treatments for 5–7 days. Supernatants were collected on alternate days, and cells in culture were resuspended in sample or media alone. To ensure cell viability, standard trypan blue dye exclusion assays were performed. To quantify viral inhibition, the amount of p24gag was measured in cell supernatants with an ELISA (PerkinElmer, Waltham, MA, USA).
(§5) The antiviral, metabolic, and cytotoxicity experiments were performed at least three times, and each of the assays were performed in triplicate or quadruplicate. For the TZM-bl antiviral assays the infected vehicle-only controls were averaged and set as 100% infection. For the PM1 and PBMC antiviral assays, p24 ELISA quantification established the infected vehicle-only control as 100% infection. […] Individual treatments were analyzed by either one-way ANOVA with Tukey's multiple comparisons post-test or two-tailed unpaired t-test.

PM1 cells = settings: 35 µg/ml with or without 1% SP; n = 3
Description: as §4, §5

trypsin [6] = assay: trypsin diluted with sterile PBS; settings: 37°C, up to 24 h
[7] = SP spiked with a broad spectrum protease inhibitor (PI); settings: human, 37°C, up to 24 h
[8] = MALDI TOF/TOF MS/MS and nano-LC-MS/MS

Chain of prostate-specific antigen (PSA) (P07288 25-261): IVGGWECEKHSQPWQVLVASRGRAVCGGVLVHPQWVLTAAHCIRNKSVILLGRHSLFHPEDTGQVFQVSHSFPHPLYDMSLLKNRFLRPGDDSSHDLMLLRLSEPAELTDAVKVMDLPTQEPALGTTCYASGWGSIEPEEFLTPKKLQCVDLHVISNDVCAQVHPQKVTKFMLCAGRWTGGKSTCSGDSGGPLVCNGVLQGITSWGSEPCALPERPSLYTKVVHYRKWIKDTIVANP
Chain of matriptase (Q9Y5Y6 whole entry): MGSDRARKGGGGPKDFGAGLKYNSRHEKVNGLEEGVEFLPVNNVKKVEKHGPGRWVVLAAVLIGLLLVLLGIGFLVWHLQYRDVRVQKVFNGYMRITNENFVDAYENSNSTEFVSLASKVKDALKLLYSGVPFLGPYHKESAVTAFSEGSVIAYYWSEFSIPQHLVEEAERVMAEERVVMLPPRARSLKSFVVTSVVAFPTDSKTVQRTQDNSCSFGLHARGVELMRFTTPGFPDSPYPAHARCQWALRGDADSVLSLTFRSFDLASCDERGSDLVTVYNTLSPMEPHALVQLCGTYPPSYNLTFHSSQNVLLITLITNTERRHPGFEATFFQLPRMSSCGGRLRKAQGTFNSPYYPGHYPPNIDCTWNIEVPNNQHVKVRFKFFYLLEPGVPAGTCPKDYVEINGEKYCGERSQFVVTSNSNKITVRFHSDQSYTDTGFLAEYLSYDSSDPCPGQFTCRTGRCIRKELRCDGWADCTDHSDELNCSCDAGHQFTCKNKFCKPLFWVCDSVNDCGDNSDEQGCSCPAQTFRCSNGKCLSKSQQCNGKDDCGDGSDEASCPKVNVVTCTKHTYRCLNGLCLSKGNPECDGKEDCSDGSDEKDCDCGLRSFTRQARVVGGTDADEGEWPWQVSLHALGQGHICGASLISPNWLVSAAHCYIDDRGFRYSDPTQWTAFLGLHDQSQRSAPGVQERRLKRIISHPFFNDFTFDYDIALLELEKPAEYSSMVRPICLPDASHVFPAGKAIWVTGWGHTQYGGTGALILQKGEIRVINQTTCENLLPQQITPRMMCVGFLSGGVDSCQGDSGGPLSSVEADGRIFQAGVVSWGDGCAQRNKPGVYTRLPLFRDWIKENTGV
Chain of prostasin (Q16651 33-343): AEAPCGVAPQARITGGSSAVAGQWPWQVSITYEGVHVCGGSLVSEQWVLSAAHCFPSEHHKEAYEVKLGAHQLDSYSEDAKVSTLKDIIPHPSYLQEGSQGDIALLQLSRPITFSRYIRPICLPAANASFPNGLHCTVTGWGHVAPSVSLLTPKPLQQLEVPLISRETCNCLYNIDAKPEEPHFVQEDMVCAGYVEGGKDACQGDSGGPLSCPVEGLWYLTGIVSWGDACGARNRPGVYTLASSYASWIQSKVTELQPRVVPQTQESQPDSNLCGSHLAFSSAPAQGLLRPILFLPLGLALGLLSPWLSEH

| Sequence | cleavage products by MS after incubation with prostasin (prostasin; [8]) | degradation by prostasin (prostasin; PAP^286 54 µM, prostasin 1 µM in PBS, 300 rpm, 24 h, 37°C, Tricine-SDS gel, silver stain) | cleavage products by MS after incubation with trypsin (trypsin [1]; [8]) | degradation by trypsin (positive control) (trypsin [1]; PAP^286 54 µM, trypsin 1 µM in PBS, 300 rpm, 24 h, 37°C, Tricine-SDS gel, silver stain) | cleavage products by MS after incubation with matriptase (matriptase; [8]) | degradation by matriptase (matriptase; PAP^286 54 µM, matriptase 1 µM in PBS, 300 rpm, 24 h, 37°C, Tricine-SDS gel, silver stain) | cleavage products by MS after incubation with PSA [2, 8] | degradation by PSA ([2]; PAP^286 54 µM (250 µg/ml), PSA 1 µM in PBS, 300 rpm, 24 h, 37°C, Tricine-SDS gel, silver stain) | PSA concentration giving complete degradation ([2]; PAP^286 54 µM, PSA 1.5 µM–[…], 300 rpm, 24 h, 37°C, Tricine-SDS gel, silver stain) [µM] | stability in SP containing protease inhibitor (PI) cocktail [3] | time to complete degradation [3] [h] | time to partial degradation [3] [h] | cytotoxicity (trypan blue) (TZM-bl cells [4]) | metabolic activity of cells (MTT) (TZM-bl cells [5]) | cytotoxicity (trypan blue) (PBMCs) | cytotoxicity (trypan blue) (PM1 cells) | fragment found (trypsin [6]) | not cleaved [7] |
| --- | --- | --- | --- | --- | --- | --- | --- | --- | --- | --- | --- | --- | --- | --- | --- | --- | --- | --- |
| GIHKQKEKSRLQGGVLVNEILNHMKRATQIPSYKKLIMY [PAP^286] | detectable cleavage products | did not effectively degrade | detectable cleavage products | completely degraded the peptide, with no cleavage products visualized | detectable cleavage products | degradation of the PAP peptide with visible cleavage products | detectable cleavage products | degradation of the PAP peptide with visible cleavage products | 0.75 | preservation | ≤ 3 | ≤ 1 |  |  |  |  |  |  |
| GIHKQKEKSRLQGGVLVNE [PAP^266] |  |  |  |  |  |  |  |  |  | preservation | ≤ 3 | ≤ 1 | lack of cytotoxicity | no significant adverse effects to metabolic activity | No appreciable cytotoxicity | No appreciable cytotoxicity |  |  |
| GIHKQKEKSRLQGGVLVNEILNHMKRATQIPSYKKLIMY |  |  |  |  |  |  |  |  |  |  |  |  |  |  |  |  | SRLQGGVLVNEILNHMKR; also recorded: ATQIPSYK; also recorded: LQGGVLV; also recorded: RATQIPS; also recorded: ATQIPS; also recorded: LQGGVL; also recorded: LQGGV | preservation of the PAP peptides over time |
